# Measured values taken from patent publication US7282512B2, “Cycloalkyl ketoamides derivatives useful as cathepsin K inhibitors” (SmithKline Beecham Corporation, priority 2002, dated 2007).
# Assays:
# human cathepsin H = human cathepsin H (Homo sapiens, UniProt P09668); test: cathepsin H inhibition assay, substrate L-Arg-β-naphthalamide; format: biochemical; conditions: Table 2; enzyme from human liver tissue, 50 μM substrate; read-out: hCat H Ki
# Protocol: (§1) All assays for cathepsin K were carried out with human and rat recombinant enzyme. Assays for cathepsins S & V were also carried out with human recombinant enzyme. Assays for human cathepsins B, H, and L were carried out with enzyme, purchased from Athens Research and Technology, Inc., prepared from human liver tissue. Standard assay conditions for the determination of kinetic constants used a fluorogenic peptide substrate, typically (5S,8S)-13-amino-5-benzyl-13-imino-3-methylene-N-(4-methyl-2-oxo-2H-chromen-7-yl)-6-oxo-1-phenyl-2-oxa-4,7,12-triazatridecane-8-carboxamide (Cbz-Phe-Arg-AMC), and were determined in 100 mM sodium acetate at pH 5.5 containing 10 mM dithiothreitol and 120 mM sodium chloride. A stock substrate solution of Cbz-Phe-Arg-AMC was prepared at a concentration of 50 mM in dimethyl sulfoxide. This substrate was diluted into the assay for a final substrate concentration of 10 μM in the rat cathepsin K, human cathepsin K, and human cathepsin B assays; a final substrate concentration of 5 μM in the human cathepsin L assay; and a final substrate concentration of 2 μM in the human cathepsin V assay. […]
# (§2) All assays contained 10% dimethyl sulfoxide. […] Product fluorescence (excitation at 360 nm; emission at 440 nm, (except cathepsin H which used excitation at 340 nm; emission at 420 nm)) was monitored with a PerSeptive Biosystems Cytofluor II fluorescence plate reader. […]
# (§3) Potential inhibitors were evaluated using the progress curve method. […] For those compounds whose progress curves were linear, the enzymatic activity (RATE) was plotted against the concentration of test compound, including inhibitor concentration of zero ([I]=0), and the IC50 determined from a fit of equation 1 to the data, RATE=Vmax/(1+([I]/IC50)) (1) where Vmax is the best fit estimate of the maximal enzymatic activity. Ki values were calculated from IC50 values using equation 2 assuming a competitive model.
# human cathepsin S = human cathepsin S (Homo sapiens, UniProt P25774); test: cathepsin S inhibition assay, fluorogenic substrate Cbz-Val-Val-Arg-AMC; format: biochemical; conditions: Table 2; human recombinant enzyme, 10 μM substrate; read-out: hCat S Ki
# Chain of human cathepsin S (P25774 115-331): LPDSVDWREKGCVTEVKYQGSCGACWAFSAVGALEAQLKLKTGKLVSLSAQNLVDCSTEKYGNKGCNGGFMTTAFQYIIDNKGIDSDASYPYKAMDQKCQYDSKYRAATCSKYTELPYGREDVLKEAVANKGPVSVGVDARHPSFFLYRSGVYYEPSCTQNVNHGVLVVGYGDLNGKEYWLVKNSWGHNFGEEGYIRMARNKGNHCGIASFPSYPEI
# Protocol: as §1, §2, §3
# Chain of human cathepsin H (P09668 116-335 limits assumed, other chains not shown): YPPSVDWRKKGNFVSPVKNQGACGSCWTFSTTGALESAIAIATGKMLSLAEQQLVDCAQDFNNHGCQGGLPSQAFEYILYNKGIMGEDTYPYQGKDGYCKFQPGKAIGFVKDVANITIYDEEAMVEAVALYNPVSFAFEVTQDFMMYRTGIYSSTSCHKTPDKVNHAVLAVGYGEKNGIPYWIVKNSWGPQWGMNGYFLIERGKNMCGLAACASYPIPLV
Ki (human cathepsin H) [nM],Ki (human cathepsin S) [nM],SMILES
> 1000,100 to 1000,"CCCC[C@H](NC(=O)OC1(Cc2ccccc2)CCCC1)C(=O)C(=O)N[C@@H](C)C(=O)OCc1ccccc1 [Example 3, Benzyl (2S)-2-{[(3S)-3-({[(1-benzylcyclopentyl)oxy]carbonyl}amino)-2-oxoheptanoyl]amino}propanoate]"
100 to 1000,1 to 10,"CCCC[C@H](NC(=O)OCC1(Cc2ccc(F)cc2)CCC1)C(=O)C(=O)Nc1n[nH]c2cc(Cl)ccc12 [Example 15, [1-(4-fluorobenzyl)cyclobutyl]methyl(1S)-1-[[(6-chloro-1H-indazol-3-yl)amino](oxo)acetyl]pentylcarbamate]"
> 1000,10 to 100,"CCCC[C@H](NC(=O)OC1(c2nc3ccccc3s2)CCCC1)C(=O)C(=O)Nc1ccn[nH]1 [Example 17, 1-(1,3-Benzothiazol-2-yl)cyclopentyl(1S)-1-[oxo(1H-pyrazol-3-ylamino)acetyl]pentylcarbamate]"
